Assay results: ChEMBL document CHEMBL1201862, “PubChem BioAssay data set” (2004)
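The compound was tested at five concentrations on cells cultured in 96-well plates, with a 48-hour exposure period. GI50 is the concentration that inhibits growth by half.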 Calls of active or inactive are those of the source. Rule as the data show it: active = GI50 up to about 1.1 µM and inactive = higher.

How the values were obtained:
Assay in all cases: growth of human tumour cells (NCI), 48 h
MDA-MB-435 = system: MDA-MB-435
UACC-257 = system: UACC-257
SN12C = system: SN12C
MDA-MB-231 = system: MDA-MB-231
OVCAR-5 = system: OVCAR-5
TK-10 = system: TK-10
COLO 205 = system: COLO 205
OVCAR-8 = system: OVCAR-8
K562 = system: K562
T47D = system: T47D
SNB-19 = system: SNB-19
IGROV-1 = system: IGROV-1
EKVX = system: EKVX
HCT-116 = system: HCT-116
786-0 = system: 786-0
DU-145 = system: DU-145
SR = system: SR
A549 = system: A549

Row | Structure (SMILES) | GI50 (MDA-MB-435) | GI50 (UACC-257) | GI50 (SN12C) | GI50 (MDA-MB-231) | GI50 (OVCAR-5) | GI50 (TK-10) | GI50 (COLO 205) | GI50 (OVCAR-8) | GI50 (K562) | GI50 (T47D) | GI50 (SNB-19) | GI50 (IGROV-1) | GI50 (EKVX) | GI50 (HCT-116) | GI50 (786-0) | GI50 (DU-145) | GI50 (SR) | GI50 (A549)
1 | S=C1NC2=C(COC/C2=C\c2ccccc2Cl)C(c2ccccc2Cl)N1 (stereo not given) | 25.7 µM (inactive) | 56 µM (inactive) | 33 µM (inactive) | > 100 µM (inactive) | > 100 µM (inactive) | 55.8 µM (inactive) | 18.5 µM (inactive) | 29.8 µM (inactive) | 14.9 µM (inactive) | 41.5 µM (inactive) | 50.5 µM (inactive) | 39.1 µM (inactive) | 33.2 µM (inactive) | 17.5 µM (inactive) | 36 µM (inactive) | 70.8 µM (inactive) | 2.84 µM (inactive) | –
2 | CC1=CC[C@@H]2[C@@H](CC[C@@]2(C)O)C(C)(C)[C@H]1CC[C@@H]1[C@@]2(C)CC[C@@H](O)C(C)(C)O[C@@H]2CC[C@]1(C)O | 22.3 µM (inactive) | 25.6 µM (inactive) | 24.9 µM (inactive) | 17.5 µM (inactive) | 29.9 µM (inactive) | 35.6 µM (inactive) | 19.4 µM (inactive) | – | 15.3 µM (inactive) | 39.2 µM (inactive) | 14.2 µM (inactive) | – | – | 14 µM (inactive) | 18.3 µM (inactive) | 36.3 µM (inactive) | 14.9 µM (inactive) | 27.3 µM (inactive)
3 | CC1CC[C@@]2(OC1)OC1C[C@H]3[C@@H]4CCC5CC(O)CC[C@]5(C)[C@H]4C/C(=N\N(C)C)[C@]3(C)C1[C@@H]2C (stereo not given in full) | 19.5 µM (inactive) | 38.8 µM (inactive) | 24.8 µM (inactive) | 19.2 µM (inactive) | 27.1 µM (inactive) | 29.2 µM (inactive) | 19.9 µM (inactive) | – | 28.2 µM (inactive) | 31.8 µM (inactive) | 30.1 µM (inactive) | 28.7 µM (inactive) | – | 23.3 µM (inactive) | 20.3 µM (inactive) | 21.8 µM (inactive) | 13.8 µM (inactive) | 35.3 µM (inactive)
4 | CCOC(=O)NC(Nc1ccc(S(=O)(=O)Nc2ncccn2)cc1)(C(=O)OCC)C(F)(F)F (stereo not given) | > 100 µM (inactive) | > 100 µM (inactive) | > 100 µM (inactive) | > 100 µM (inactive) | > 100 µM (inactive) | – | > 100 µM (inactive) | > 100 µM (inactive) | > 100 µM (inactive) | > 100 µM (inactive) | > 100 µM (inactive) | > 100 µM (inactive) | > 100 µM (inactive) | > 100 µM (inactive) | > 100 µM (inactive) | > 100 µM (inactive) | > 100 µM (inactive) | > 100 µM (inactive)
5 | Cc1ccc(NC(=S)NNC(=O)c2cc(-c3ccccc3)nc3ccccc23)cc1 | 2.81 µM (inactive) | 14.4 µM (inactive) | 16.2 µM (inactive) | 18.5 µM (inactive) | 15.4 µM (inactive) | 14 µM (inactive) | 16 µM (inactive) | 18.3 µM (inactive) | 13.4 µM (inactive) | 3.21 µM (inactive) | 16.7 µM (inactive) | 15.2 µM (inactive) | – | 8.59 µM (inactive) | 13 µM (inactive) | 12.9 µM (inactive) | 3.18 µM (inactive) | 11.9 µM (inactive)
6 | Cc1ccc(-c2nnc(CCCCCCCCc3nnc(-c4ccc(C)cc4O)n3N)n2N)c(O)c1 | > 100 µM (inactive) | > 100 µM (inactive) | > 100 µM (inactive) | > 100 µM (inactive) | > 100 µM (inactive) | > 100 µM (inactive) | > 100 µM (inactive) | > 100 µM (inactive) | – | 56.5 µM (inactive) | 61.8 µM (inactive) | > 100 µM (inactive) | > 100 µM (inactive) | > 100 µM (inactive) | 85.1 µM (inactive) | > 100 µM (inactive) | > 100 µM (inactive) | > 100 µM (inactive)
7 | CCOC(=O)C(=Cc1ccccc1Cl)C(=O)OCC | 1.13 µM (inactive) | 1.82 µM (inactive) | 1.6 µM (inactive) | 1.83 µM (inactive) | 1.88 µM (inactive) | – | 1.57 µM (inactive) | 0.938 µM (active) | 1.15 µM (inactive) | 2.64 µM (inactive) | 1.84 µM (inactive) | 3.49 µM (inactive) | 3.03 µM (inactive) | 0.558 µM (active) | 1.34 µM (inactive) | 1.92 µM (inactive) | 0.547 µM (active) | 2.21 µM (inactive)
8 | CC1=C(C(N)=O)C(c2ccncc2)C(C#N)C(=O)N1 (stereo not given) | > 100 µM (inactive) | > 100 µM (inactive) | – | > 100 µM (inactive) | – | > 100 µM (inactive) | > 100 µM (inactive) | – | > 100 µM (inactive) | > 100 µM (inactive) | > 100 µM (inactive) | > 100 µM (inactive) | > 100 µM (inactive) | > 100 µM (inactive) | > 100 µM (inactive) | > 100 µM (inactive) | > 100 µM (inactive) | –
9 | O=C1OCCC[C@H]2O[C@@H](COCc3ccccc3)C[C@@H]12 | > 100 µM (inactive) | > 100 µM (inactive) | > 100 µM (inactive) | > 100 µM (inactive) | > 100 µM (inactive) | > 100 µM (inactive) | > 100 µM (inactive) | > 100 µM (inactive) | > 100 µM (inactive) | > 100 µM (inactive) | > 100 µM (inactive) | – | – | > 100 µM (inactive) | > 100 µM (inactive) | > 100 µM (inactive) | > 100 µM (inactive) | > 100 µM (inactive)
10 | O=C(CC(C(=O)c1ccsc1)c1cccs1)c1ccsc1 (stereo not given) | 34.8 µM (inactive) | 51.4 µM (inactive) | 65.6 µM (inactive) | 92 µM (inactive) | > 100 µM (inactive) | > 100 µM (inactive) | 45.1 µM (inactive) | 60.5 µM (inactive) | 42.8 µM (inactive) | 21.4 µM (inactive) | > 100 µM (inactive) | > 100 µM (inactive) | 49.9 µM (inactive) | – | > 100 µM (inactive) | 75.7 µM (inactive) | 27.4 µM (inactive) | 46.6 µM (inactive)
11 | CC(=O)c1sc(Nc2ccc(Cl)c(Cl)c2)nc1C | > 100 µM (inactive) | 68.5 µM (inactive) | > 100 µM (inactive) | 21 µM (inactive) | > 100 µM (inactive) | > 100 µM (inactive) | > 100 µM (inactive) | > 100 µM (inactive) | – | 40 µM (inactive) | > 100 µM (inactive) | > 100 µM (inactive) | 5.64 µM (inactive) | > 100 µM (inactive) | > 100 µM (inactive) | > 100 µM (inactive) | 60.3 µM (inactive) | 96.6 µM (inactive)
12 | C[C@@H](c1ccccc1)n1c(N)c(C#N)c2ccc([N+](=O)[O-])cc2c1=O | 14.2 µM (inactive) | 18.7 µM (inactive) | 12 µM (inactive) | 14.9 µM (inactive) | – | 11.6 µM (inactive) | 15 µM (inactive) | 12 µM (inactive) | 12.8 µM (inactive) | 15.7 µM (inactive) | 13.6 µM (inactive) | – | – | 14.4 µM (inactive) | 15 µM (inactive) | 15.9 µM (inactive) | 2.69 µM (inactive) | > 100 µM (inactive)
